Data as given in PMC10548421, “Anticancer Potential of Diruthenium Complexes with Bridging Hydrocarbyl Ligands from Bioactive Alkynols” (Inorganic Chemistry, 2023).

What was measured:
[1] = test system: HOS human osteosarcoma cell line; test: MTT in vitro cytotoxicity, HOS; assay type: cell-based; conditions: incubation 24 h, mean ± SD
Method: (§1) The cytotoxicity assessment was conducted on various human cancer cell lines, including A2780 ovarian carcinoma, A2780R cisplatin-resistant ovarian carcinoma, MCF-7 breast, HOS osteosarcoma, A549 epithelial lung, PANC-1 pancreatic, Caco-2 colorectal, PC-3 prostate adenocarcinoma, and HeLa cervical cell lines. Additionally, the assessment extended to a normal human fetal fibroblast cell line (MRC-5). Cells were obtained from ATCC collection and cultivated according to the producer’s instructions. Stock solutions of the compounds were prepared in DMF immediately before application, and diluted with H2O to achieve the final concentration of 0.1% v/v DMF.[99] The culture media were enriched with 10% fetal calf serum. Subsequently, the cells were exposed to the tested compounds, vehicle (0.1% v/v DMF) and Triton X-100 (1% v/v), during incubation. The conventional MTT assay was carried out following different incubation periods (Tables 5-6). The absorbance was measured at 570 nm by using a spectrophotometer (Infinite M200, Schoeller Instruments, Prague, Czech Republic). The obtained data are presented as the percentage of cell viability with 100% representing negative control treatment (0.1% v/v DMF) and 0% representing the positive control (Triton X-100). The half-maximal inhibitory concentrations (IC50) were determined from dose–response curves using GraphPad Prism 6 software (GraphPad Software, San Diego, USA).

[2] = test system: MRC-5 normal human lung fibroblast cell line; test: MTT in vitro cytotoxicity, MRC-5 (selectivity); assay type: cell-based; conditions: for IC50: normal cells, MTT, incubation 24 h, mean ± SD
Method: as §1

[3] = test system: HeLa human cervical carcinoma cell line; test: MTT in vitro cytotoxicity, HeLa; assay type: cell-based; conditions: incubation 24 h, mean ± SD
Method: as §1

[4] = test system: PC-3 human prostate carcinoma cell line; test: MTT in vitro cytotoxicity, PC-3; assay type: cell-based; conditions: incubation 24 h, mean ± SD
Method: as §1

A2780 cells [5] = test: Mitochondrial membrane potential analysis (MITO-ID); assay type: cell-based, human; conditions: A2780, complexes 4 μM, cisplatin 15 μM, 24 h
Method: (§2) The A2780 ovarian carcinoma cell line was received from Merck (reference 93112519–1VL) and cultured at 37 °C in an environment with 5% CO2. The cultivation was carried out in complete cell culture medium (RPMI-1640 medium, Merck), which was supplemented with 10% fetal bovine serum (FBS, Merck), 1% L-glutamine (Merck) and 1% penicillin–streptomycin–neomycin (PSN, Merck). For the flow cytometry experiments, three independent duplicates were analyzed using a BD FACSVerse flow cytometer (Becton Dickinson, USA). At least 5 × 10^3 events were recorded for each sample. The same procedure was replicated for the experiments described below. Solutions of the complexes were formulated using the stock solutions (Section 5.1).
To investigate the effects on mitochondrial membrane potential of A2780 cells, an MITO-ID Membrane potential detection kit (Enzo Life Sciences, USA) was used. Cells were seeded in a 24-well (5 × 10^4 cells/well), and then incubated with 4 μM solution of complexes for 24 h. The supernatant was collected, cells were washed with warm PBS, detached using 0.25% trypsin-EDTA (Gibco) and resuspended in a cell culture medium. Then, samples were stained with diluted MITO-ID MP Detection Reagent (according to the protocol) at RT for 15 min, prior to flow cytometry analysis. A positive control was established by treating the samples with 2 μM carbonyl cyanide 3-chlorophenylhydrazone.

[6] = test system: MCF-7 breast adenocarcinoma cell line; test: MTT in vitro cytotoxicity, MCF-7; assay type: cell-based, human; conditions: incubation 24 h, mean ± SD
Method: as §1

A2780 cells [7] = test: Cell cycle analysis (flow cytometry, PI); assay type: cell-based, human; conditions: A2780, 4 μM, 24 h
Method: as §2
These studies were conducted on A2780 cells using the BD Cycletest Plus DNA kit (from Becton Dickinson, USA). Thus, cells were seeded in 96-well plates (10^4 cells/well) and treated with 4 μM complexes 3a and 3b for 24 h. Following the incubation period, cells underwent a series of procedural steps. Initially, they were rinsed using PBS (0.1 M, pH 7.4). […]

A2780 cells [8] = test: ROS production assessment (ROS-ID); assay type: cell-based, human; conditions: A2780, 4 μM, 24 h
Method: as §2
ROS-ID Total ROS/Superoxide detection kit (from Enzo Life Sciences, US) was employed to quantify ROS and superoxide generation in A2780 cells following the treatment with the tested compounds. Thus, cells were seeded in a 96-well plate (10^4 cells/well) and incubated with 4 μM solution of complexes for 24 h. A 100 μM solution of pyocyanin, which is a known oxidative-stress inducer, was used as a positive control. […] Finally, a microplate reader Infinite M200Pro (Tecan, Switzerland) was used to measure sample fluorescence (green: Ex. 488 nm/Em. 520 nm, and red: Ex. 550 nm/Em. 610 nm) and three independent experiments were done in triplicates.

A2780 cells [9] = test: Apoptosis, Annexin V/propidium iodide flow cytometry; assay type: cell-based, human; conditions: A2780, 4 μM, 24 h
Method: as §2
Apoptosis assay was performed using an Annexin V-FITC/PI commercial kit (V13242, Thermo Fisher Scientific, USA), while caspase 3/7 activation assay was performed with a CellEvent Caspase-3/7 Green Flow Cytometry Assay Kit (C10427, Thermo Fisher Scientific, USA). A2780 cells were seeded in 24-well plates at a density of 5 × 10^4 cells per well; after 24 h, the cells were exposed to 4 μM solution of the selected complex for 24 h. […] The supernatant was collected, cells were washed with PBS (0.1 M, pH 7.4), and trypsin was added (0.25% trypsin-EDTA, GibcoTM). Finally, complete cell culture medium was added to stop the trypsinization, and a final volume of 500 μL was divided into two 250 μL aliquots, following the protocol provided by the manufacturer. Samples were centrifuged, treated with the respective buffers, and then incubated in the dark at room temperature for 10 min (Annexin V-FITC/PI) or at 37 °C for 30 min (CellEventTM Caspase-3/7 Green Detection Reagent).

[10] = Stability in H2O/CH3OH solution (UV–vis); assay type: physicochemical; conditions: ca. 5:1 v/v
Method: […] The percentage of remaining complex in the solution was calculated by considering the change in absorbance at the characteristic wavelength. The identical procedure was employed to evaluate stability in MeOH and DMEM (about 1:5 v/v) solutions. DMEM stands for the cell culture medium (containing 1000 mg/L glucose and L-glutamine, excluding sodium bicarbonate and phenol red; reference D2902-Merck).

CC12CCC3c4ccc(O)cc4CCC3C1CCC2=C=[CH][Ru]1(=[C]=O)([CH]2C=CC=C2)[C](=O)[Ru+]1(=[C]=O)[CH]1C=CC=C1.F[B-](F)(F)F (mixture of isomers) [3b, [Ru2Cp2(CO)3{μ–η^1:η^2-CH=C=(estradiolylidene)}]BF4]
IC50 [1]: 12.6 ± 0.5 µM
IC50 on healthy MRC-5 cell line compared to the average IC50 values of the cancer cell lines ([2]; 24 h, selectivity): approximately 2 fold
IC50 [2]: 25.9 ± 2.9 µM
IC50 [3]: 12.5 ± 1.1 µM
IC50 [4]: 13.4 ± 1.8 µM
cell count with damaged mitochondrial membranes (in words) (A2780 cells [5]): notable augmentation
IC50 [6]: 11.6 ± 1.5 µM
effect on the cell cycle (in words) (A2780 cells [7]): strong depression of the cell number in the synthetic (S) phase and second gap and mitotic phases (G2/M)
intracellular ROS levels (in words) (A2780 cells [8]): no appreciable effect
proapoptotic effect, Annexin V/PI (in words) (A2780 cells [9]): much less effective than that of cisplatin
residual complex % in H2O/CH3OH ([10]; 30 min): 99%
residual complex % in H2O/CH3OH ([10]; 2 h): 92%
residual complex % in H2O/CH3OH ([10]; 18 h): 43%

F[B-](F)(F)F.O=[C]=[Ru+]1([CH]2C=CC=C2)[C](=O)[Ru]1(=[C]=O)([CH]=C=C1CCCC1)[CH]1C=CC=C1 (stereo not drawn) [3a, [Ru2Cp2(CO)3{μ–η^1:η^2-CH=C=(cyclopentylidene)}]BF4]
IC50 [1]: 14.6 ± 0.5 µM
IC50 [2]: 38.3 ± 3.9 µM
IC50 [3]: 17.5 ± 2.9 µM
IC50 [4]: 22.2 ± 2.4 µM
cell count with damaged mitochondrial membranes (in words) (A2780 cells [5]): notable augmentation
IC50 [6]: 16.2 ± 1.7 µM
effect on the cell cycle (in words) (A2780 cells [7]): strong depression of the cell number in the synthetic (S) phase and second gap and mitotic phases (G2/M)
intracellular ROS levels (in words) (A2780 cells [8]): noteworthy elevation of intracellular ROS levels
proapoptotic effect, Annexin V/PI (in words) (A2780 cells [9]): much less effective than that of cisplatin
residual complex % in H2O/CH3OH ([10]; 2 h): 96%
residual complex % in H2O/CH3OH ([10]; 18 h): 78%
